Data from PubChem BioAssay (NCI).
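Dose response: 5 concentrations. Exposure: 48 h. Format: 96-well plates. Endpoint: linear interpolation; highest concentration if not reached. TGI marks complete inhibition of growth.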 Where a SMILES comes first, the peptide text is derived from it. The star is where a group is joined. Fmoc = O=C(OCC1c2ccccc2-c2ccccc21)*; Boc = CC(C)(C)OC(=O)*

Experiments:
Assay in all cases: DTP human tumour cell line panel, 48 h
[1] = test system: SF-539 CNS
[2] = test system: CAKI-1 renal
[3] = test system: T-47D breast
[4] = test system: UO-31 renal
[5] = test system: 786-0 renal
[6] = test system: DU-145 prostate
[7] = test system: BT-549 breast
[8] = test system: MOLT-4 leukemia
[9] = test system: IGROV1 ovarian
[10] = test system: SK-MEL-28 melanoma
[11] = test system: HL-60(TB) leukemia
[12] = test system: U251 CNS
[13] = test system: PC-3 prostate
[14] = test system: HCC-2998 colon
[15] = test system: OVCAR-5 ovarian
[16] = test system: SNB-75 CNS
[17] = test system: K-562 leukemia
[18] = test system: MDA-MB-435

Row | Compound | TGI [1] [µM] | TGI [2] [µM] | TGI [3] [µM] | TGI [4] [µM] | TGI [5] [µM] | TGI [6] [µM] | TGI [7] [µM] | TGI [8] [µM] | TGI [9] [µM] | TGI [10] [µM] | TGI [11] [µM] | TGI [12] [µM] | TGI [13] [µM] | TGI [14] [µM] | TGI [15] [µM] | TGI [16] [µM] | TGI [17] [µM] | TGI [18] [µM]
1 | CCOC(=O)c1c[nH]c2cc3c(cc2c1=O)CCS3 | > 100 | > 100 | > 100 | > 100 | > 100 | > 100 | > 100 | > 100 | > 100 | > 100 | > 100 | > 100 | > 100 | > 100 | > 100 | > 100 | > 100 | > 100
2 | CCO/N=C(/CC)c1ccc(Br)s1 | > 100 | > 100 | > 100 | > 100 | > 100 | > 100 | > 100 | > 100 | > 100 | > 100 | > 100 | > 100 | > 100 | > 100 | > 100 | > 100 | > 100 | > 100
3 | O=C(N1CCN(c2ccccc2)CC1)N(C(=O)C1(c2ccc(Cl)cc2)CCCC1)S(=O)(=O)c1ccccc1 | 49.7 | 71.4 | > 100 | 92.9 | > 100 | > 100 | 80.2 | 59.1 | – | > 100 | 68.1 | 62.4 | 76.1 | 58.5 | 65.7 | > 100 | > 100 | > 100
4 | NC(N)=N/N=C/c1c(-c2ccc(Cl)cc2)nc2n1CCS2 | 25 | 28 | 34.8 | 25.5 | 17.1 | 25.5 | 28 | 17.3 | 27.5 | 26.8 | > 100 | 28.5 | 18.2 | 8.39 | 28.3 | 26.2 | 20 | 25.6
5 | COC(=O)c1c(OC(C)=O)ccc2c1c1cc3ccccc3c(OC(C)=O)c1n2C | 91.1 | 70.3 | 39.8 | > 100 | 43.2 | 44.6 | 81.1 | > 100 | 12.8 | > 100 | > 100 | > 100 | > 100 | 91.7 | > 100 | 36 | > 100 | > 100
6 | CCOC(=O)/C=C1\C[C@H](NC(=O)OCc2ccccc2)C(=O)N1CC(=O)OCC | > 100 | > 100 | > 100 | > 100 | > 100 | > 100 | > 100 | > 100 | > 100 | > 100 | > 100 | > 100 | > 100 | > 100 | > 100 | > 100 | > 100 | > 100
7 | COc1ccccc1NC1=NCC(C)S1 (stereo not drawn) | > 100 | > 100 | > 100 | > 100 | > 100 | > 100 | > 100 | > 100 | > 100 | > 100 | > 100 | > 100 | > 100 | > 100 | > 100 | > 100 | > 100 | > 100
8 | COc1cc2c3c4c1OCc1c5c(cc(c1-4)CC3[N+](C)(C)CC2)OCO5 (stereo not drawn) | > 96.6 | > 100 | > 100 | > 100 | > 63.5 | > 100 | 12.3 | > 100 | > 100 | > 100 | > 100 | > 64.1 | > 100 | > 100 | > 100 | > 100 | > 100 | > 100
9 | Cc1cn(C2CC(O)C(Cn3nncc3Cn3ccc(=O)[nH]c3=O)O2)c(=O)[nH]c1=O (stereo not drawn) | > 100 | > 100 | > 100 | > 100 | > 100 | > 100 | > 100 | > 100 | > 100 | > 100 | > 100 | > 100 | > 100 | > 100 | > 100 | > 100 | – | > 100
10 | CCOC(=O)c1c(CN2CCOCC2)n(Cc2ccccc2)c2c1cc(O)c1nc(C)c(C)nc12 | 87 | 64.9 | > 100 | > 100 | 68.7 | > 100 | 34 | > 100 | – | > 100 | > 100 | 74.3 | 92.4 | > 100 | > 100 | 32.7 | > 100 | > 100
11 | Cc1cc(C)nc(NS(=O)(=O)c2ccc(NC(=O)c3ccc4nc5ccccc5c(Nc5ccc(S(=O)(=O)Nc6nc(C)cc(C)n6)cc5)c4c3)cc2)n1 | > 100 | > 100 | > 100 | > 100 | > 100 | > 100 | 69.7 | 78.1 | > 100 | > 100 | 79.1 | > 100 | > 100 | > 100 | > 100 | > 100 | > 100 | > 100
12 | N#Cc1c(Nc2ccccc2)[n+]([O-])c2ccc(Cl)cc2[n+]1[O-] | 21.4 | > 100 | > 100 | > 29.4 | 34 | > 96.4 | 14.9 | > 100 | 5.96 | > 100 | 12.1 | 15.6 | > 100 | 15.2 | > 100 | > 96.6 | > 22.6 | > 100
13 | Nc1c(O)c(C(=O)O)cc2ccccc12 | > 100 | 53.8 | > 100 | > 100 | 36.4 | 35.9 | 60.3 | 83.8 | > 100 | > 100 | > 100 | > 100 | > 100 | > 100 | 41.2 | 53.5 | 85.9 | 33.4
14 | Cc1ccc2c(c1)C/C(=C\c1ccccc1C(=O)O)C2=O | > 100 | > 100 | > 100 | > 100 | > 100 | > 100 | > 100 | > 100 | > 100 | > 100 | > 100 | > 100 | > 100 | > 100 | > 100 | > 100 | > 100 | > 100
15 | NC1=CN(Cc2ccccc2)C2=N/C(=C\c3ccco3)C(=O)N12 | > 100 | > 100 | > 100 | > 100 | > 100 | > 100 | > 100 | > 100 | > 100 | > 100 | > 100 | > 100 | > 100 | > 100 | > 100 | > 100 | > 100 | > 100
16 | CC(=O)Nc1ccc2c3c(cc(O)c2c1)N(C(=O)CCCCCC(=O)Nc1ccc2c4c(cc(O)c2c1)N(C(=O)OC(C)(C)C)CC4CCl)CC3CCl (stereo not drawn) | 13.1 | > 100 | 7.82 | > 100 | 10.1 | 3.12 | 10.9 | > 32.6 | 28.5 | > 63.2 | > 36.1 | 6.75 | > 50.2 | 3.69 | 35.5 | 5.22 | > 100 | 3.29
17 | S=c1sscc1N1CCSc2ssc(=S)c21 | > 100 | > 100 | > 100 | > 100 | > 100 | 81.6 | > 100 | > 100 | > 100 | > 100 | > 100 | 38.2 | > 100 | > 100 | > 100 | 43.5 | > 100 | > 100
18 | CCN(CC)c1ccc2cc(-c3csc(-c4ccc(N(C)C)cc4)n3)c(=O)oc2c1 | > 100 | > 100 | > 100 | > 100 | > 100 | > 100 | > 100 | > 100 | > 100 | > 100 | > 100 | > 100 | > 100 | > 100 | > 100 | > 100 | > 100 | > 100
19 | CC(C)(C)OC(=O)NCCCCC(NC(=O)C(Cc1c[nH]c2ccccc12)NC(=O)OCC1c2ccccc2-c2ccccc21)C(=O)O (stereo not drawn) (Fmoc-Trp-Lys(Boc)-OH; configuration not given here) | > 100 | 31.5 | > 100 | > 100 | > 100 | > 100 | > 100 | 48.2 | > 100 | > 100 | 34 | 31.1 | > 100 | > 100 | > 100 | > 100 | 38.5 | > 100
20 | CC(=O)NC1=CC(=O)C=C(Cl)C1=O | > 100 | > 100 | > 100 | > 100 | > 100 | > 100 | > 100 | 50.9 | > 100 | > 100 | 45.7 | > 100 | > 100 | > 100 | > 100 | > 100 | 93.6 | 32.2
21 | Cc1ccc2nnc(NS(=O)(=O)c3cc(C)c(Cl)cc3S)n2n1 | > 100 | > 100 | > 100 | > 100 | > 100 | > 100 | > 100 | > 100 | > 100 | > 100 | > 100 | > 100 | > 100 | > 100 | > 100 | > 100 | > 100 | > 100
22 | CC(C)[C@H]1NC(=O)[C@H]2N=C(O[C@@H]2C)[C@@H]2CCCN2C(=O)[C@H](Cc2ccccc2)NC(=O)[C@@H]2COC(=N2)[C@@H](Cc2ccccc2)NC(=O)[C@@H]2COC1=N2 | > 100 | > 100 | > 100 | > 100 | > 100 | > 100 | > 100 | > 100 | > 100 | > 100 | > 100 | > 100 | > 100 | > 100 | > 100 | 75.6 | > 100 | > 100
